What was measured:
[1] = Critical wavelength (λcrit), approximate in-house measurement; assay type: physicochemical
Source text: As the precise test for critical wavelength was unable to be replicated exactly by the inventors due to the need for specialist equipment and a specific calibration of the spectrophotometer, these values are only approximate to a degree. […] This represents a highly useful result and so, compounds based around this benzoyl substitution pattern shown, are especially preferred.

[2] = UV absorption properties (λmax, molar extinction coefficient ε, efficiency E 1%, 1 cm); assay type: physicochemical
[3] = Table 9, C3-trifluoroacetylated N-aryl enamines
[4] = Table 6B, N-tert-butyl compounds
[5] = Table 3, compounds from isocyanates or isothiocyanates
[6] = Table 13B, miscellaneous compounds
[7] = Table 13B, values in order of the λmax values
[8] = Table 13B, values in order of the λmax values, in M-1 cm-1
[9] = Table 11, compounds from mixed anhydrides
[10] = Table 5, acylation of N-t-Bu enamine
[11] = Table 5, values in order of the λmax values
[12] = Table 5, values in order of the λmax values, in M-1 cm-1
[13] = Table 4, N-aryl enamines with isocyanates
[14] = values in order of the λmax values

CN(C)c1ccc(N2C=C(C(=O)C(F)(F)F)C(C)(C)CC2)cc1 [drawing 141]
λcrit ([1]; Table 9): 385 nm | E (1%, 1 cm) ([2]; Table 9): 1004 | λmax [2, 3]: 354 nm | ε ([2]; Table 9, in M-1 cm-1): 32744

CCC(=O)C1=CN(c2ccc(C(C)(C)C)cc2)CCC1(C)C [drawing 136]
λcrit ([1]; Table 8b): 348 nm | E (1%, 1 cm) ([2]; Table 8b): 1069 | λmax ([2]; Table 8b, N-phenyl compounds): 329 nm | ε ([2]; Table 8b, in M-1 cm-1): 31955

C=CC(=O)C1=CN(C(C)(C)C)CCC1(C)C [drawing 92]
λcrit ([1]; Table 6B): 360 nm | E (1%, 1 cm) ([2]; Table 6B): 1127 | λmax [2, 4]: 328 nm | ε ([2]; Table 6B, in M-1 cm-1): 24907

CCCN(CCC)c1ccc(C(=O)C2=CN(C(C)(C)C)CCC2(C)C)cc1
λcrit ([1]; Table 13B): 365 nm

CC1(C)CCN(C(C)(C)C)C=C1C(=S)Nc1ccccc1 [drawing 60]
λcrit ([1]; Table 3): 387 nm | Ε (1%, 1 cm) ([2]; Table 3): 691 | λmax [2, 5]: 363 nm | ε ([2]; Table 3, in M-1 cm-1): 20881

CCC(=O)C1=CN(c2ccc(-c3ccc(N4C=C(C(=O)CC)C(C)(C)CC4)c(C)c3)cc2C)CCC1(C)C
λcrit ([1]; Table 13B): 349 nm | λmax [2, 6]: 328 nm | E (1%, 1 cm) [2, 7]: 1234 | ε [2, 8]: 63191

CC1(C)CCN(c2ccc(C(C)(C)C)cc2)C=C1C(=O)C(c1ccccc1)c1ccccc1 [drawing 157]
λcrit ([1]; Table 11): 356 nm | E (1%, 1 cm) ([2]; Table 11): 407 | λmax [2, 9]: 337 nm | ε ([2]; Table 11, in M-1 cm-1): 17793

CC1(C)CCN(C(C)(C)C)C=C1C(=O)COc1ccccc1 [drawing 74]
λcrit ([1]; Table 5): 329 nm | λmax [2, 10]: 313 nm | Ε (1%, 1 cm) [2, 11]: 869 | ε [2, 12]: 26154

CC1(C)CCN(C(C)(C)C)C=C1C(=O)c1ccc(C(=O)C2=CN(C(C)(C)C)CCC2(C)C)cc1 [drawing 97]
λcrit ([1]; Table 6B): 355 nm | E (1%, 1 cm) ([2]; Table 6B): 732 | λmax [2, 4]: 317 nm | ε ([2]; Table 6B, in M-1 cm-1): 33982

CC1(C)CCN(c2ccccc2)C=C1C(=O)/C=C/c1ccc(/C=C/C(=O)C2=CN(c3ccccc3)CCC2(C)C)cc1
λcrit ([1]; Table 13B): 390 nm

CC1(C)CCN(c2ccc(C(C)(C)C)cc2)C=C1C(=O)C1c2ccccc2-c2ccccc21 [drawing 158]
λcrit ([1]; Table 11): 358 nm | E (1%, 1 cm) ([2]; Table 11): 707 | λmax [2, 9]: 339 nm | ε ([2]; Table 11, in M-1 cm-1): 30745

CC(C)(C)CC(C)(C)N1C=C(C(=O)/C=C/c2ccc(/C=C/C(=O)Cl)cc2)C(C)(C)CC1
λcrit ([1]; Table 13B): 385 nm | λmax [2, 6]: 374 nm | E (1%, 1 cm) [2, 7]: 434 | ε [2, 8]: 19194

CC1(C)CCN(C(C)(C)C)C=C1C(=O)/C=C/c1ccc(/C=C/C(=O)C2=CN(C(C)(C)C)CCC2(C)C)c([N+](=O)[O-])c1
λcrit ([1]; Table 13B): 388 nm | λmax [2, 6]: 391 nm | E (1%, 1 cm) [2, 7]: 369 | ε [2, 8]: 24359

CC1(C)CCN(C(C)(C)C)C=C1C(=O)CC(=O)c1ccccc1 [drawing 76]
λcrit ([1]; Table 5): 385 nm

Cc1ccc(N2C=C(C(=O)Nc3ccc(C)c(NC(=O)C4=CN(C(C)(C)C)CCC4(C)C)c3)C(C)(C)CC2)cc1 [drawing 67]
λcrit ([1]; Table 4): 340 nm | Ε (1%, 1 cm) ([2]; Table 4): 954 | λmax [2, 13]: 314 nm | ε ([2]; Table 4, in M-1 cm-1): 51743

Cc1nn(C)c(N2C=CC(C)(C)C=C2)c1C(=O)C(F)(F)F [drawing 153]
λcrit ([1]; Table 10): 363 nm | E (1%, 1 cm) ([2]; Table 10): 335 | λmax ([2]; Table 10, bis and mono enamine compounds): 253 nm | ε ([2]; Table 10, in M-1 cm-1): 10016 | shoulder in the λmax column ([2]; Tables 5, 10, 13B): 315 nm

CC(C)CN1C=C(C(=O)/C=C/C=Cc2ccccc2)C(C)(C)CC1 [drawing 115]
λcrit ([1]; Table 7): 387 nm

CC1(C)CCN(C(C)(C)C)C=C1C(=O)N(CCCCN(C(=O)C1=CN(C(C)(C)C)CCC1(C)C)c1ccccc1)c1ccccc1
λcrit ([1]; Table 13B): 357 nm | λmax [2, 6]: 312 nm | E (1%, 1 cm) [2, 7]: 354 | ε [2, 8]: 22166

CC1(C)CCN(C(C)(C)C)C=C1C(=O)c1ccc(Br)cc1 [drawing 94]
λcrit ([1]; Table 6B): 347 nm | E (1%, 1 cm) ([2]; Table 6B): 785 | λmax [2, 4]: 317 nm | ε ([2]; Table 6B, in M-1 cm-1): 27506

CC(C)CN1C=C(C(=O)c2ccc(N(C)C)cc2)C(C)(C)CC1 [drawing 83]
λcrit ([1]; Table 6A): 362 nm | E (1%, 1 cm) ([2]; Table 6A): 544 | ε ([2]; Table 6A): 17000 M⁻¹ cm⁻¹ | λmax ([2]; Table 6A, N-isobutyl-C3-benzoyl compounds): 336 nm

CCC(=O)C1=CN(c2ccccc2)CCC1(C)C [drawing 122]
λcrit ([1]; Table 8a): 349 nm | E (1%, 1 cm) ([2]; Table 8a): 947 | ε ([2]; Table 8a): 23000 M⁻¹ cm⁻¹ | λmax ([2]; Table 8a, N-phenyl compounds): 321 nm

CC1(C)CCN(c2ccc(C(C)(C)C)cc2)C=C1C(OC(=O)C1c2ccccc2-c2ccccc21)=C1c2ccccc2-c2ccccc21 [drawing 159]
λcrit ([1]; Table 11): 387 nm | E (1%, 1 cm) ([2]; Table 11): 105 | λmax [2, 9]: 407 nm | ε ([2]; Table 11, in M-1 cm-1): 6635

CC1(C)CCN(C(C)(C)C)C=C1C(=O)c1ccncc1 [drawing 75]
λcrit ([1]; Table 5): 354 nm | λmax [2, 10]: 316 nm | Ε (1%, 1 cm) [2, 11]: 866 | ε [2, 12]: 23556

Cc1ccc(N2C=C(C(=O)Nc3ccccc3)C(C)(C)CC2)cc1 [drawing 69]
λcrit ([1]; Table 4): 342 nm | Ε (1%, 1 cm) ([2]; Table 4): 1060 | λmax [2, 13]: 323 nm | ε ([2]; Table 4, in M-1 cm-1): 33948

CCCCNC(=O)C1=CN(C(C)(C)C)CCC1(C)C [drawing 61]
λcrit ([1]; Table 3): 312 nm | Ε (1%, 1 cm) ([2]; Table 3): 799 | λmax [2, 5]: 288 nm | ε ([2]; Table 3, in M-1 cm-1): 22531

COc1cc(/C=C/C(=O)C2=CN(C(C)(C)C)CCC2(C)C)c(OC)cc1/C=C/C(=O)C1=CN(C(C)(C)C)CCC1(C)C
λcrit ([1]; Table 13B): 391 nm | λmax [2, 6]: 402 nm | E (1%, 1 cm) [2, 7]: 559 | ε [2, 8]: 32220

Cc1ccc(N2C=C(C(=O)C(F)(F)F)C(C)(C)CC2)cc1 [drawing 142]
λcrit ([1]; Table 9): 361 nm | E (1%, 1 cm) ([2]; Table 9): 1465 | λmax [2, 3]: 337 nm | ε ([2]; Table 9, in M-1 cm-1): 43513

COc1ccc(N2C=C(C(=O)c3ccc(F)cc3)C(C)(C)CC2)cc1 [drawing 129]
λcrit ([1]; Table 8a): 369 nm | E (1%, 1 cm) ([2]; Table 8a): 571 | ε ([2]; Table 8a): 19350 M⁻¹ cm⁻¹ | λmax ([2]; Table 8a, N-phenyl compounds): 341 nm

CC(C)CN1C=C(C(=O)CC/C=C/c2ccc(COc3ccc(C(=O)CC(=O)c4ccc(C(C)(C)C)cc4)cc3)cc2)C(C)(C)CC1
λcrit ([1]; Table 1, covalently coupled compounds): 375 nm

CC(C)CN1C=C(C(=O)C(C#N)=C(c2ccccc2)c2ccccc2)C(C)(C)CC1 [drawing 118]
λcrit ([1]; Table 7): 357 nm

CC1(C)CCN(C(C)(C)C)C=C1C(=O)c1ccc(N2CCCN(c3ccc(C(=O)C4=CN(C(C)(C)C)CCC4(C)C)cc3)CC2)cc1
λcrit ([1]; Table 13B): 365 nm

COc1ccc(C(=O)CC(=O)C2=CN(CC(C)C)CCC2(C)C)cc1 [drawing 53]
λcrit ([1]; Table 2, compounds 11-13): 389 nm

CC1(C)CCN(C(C)(C)C)C=C1C(=O)/C=C/c1c2ccccc2c(/C=C/C(=O)C2=CN(C(C)(C)C)CCC2(C)C)c2ccccc12
λcrit ([1]; Table 13B): 389 nm

CC(=O)CC1=CC(C)(C)CCN1CC(C)C
E (1%, 1 cm) ([2]; Table 12): 675 | ε ([2]; Table 12): 16000 M⁻¹ cm⁻¹ | λmax ([2]; Table 12, 2-substituted compounds): 314 nm

CC(C)CN1C=C(C(=O)c2ccc(Br)cc2)C(C)(C)CC1 [Compound 16, (4-bromophenyl)(1-isobutyl-4,4-dimethyl-1,4,5,6-tetrahydropyridin-3-yl)methanone]
UV λmax [2]: 318 nm | ε (molar extinction coefficient) [2, 14]: 22500 M⁻¹ cm⁻¹

COc1ccc(N2C=C(C(=O)C3CCCC3=O)C(C)(C)CC2)cc1 (stereo not shown) [Compound 171, 2-(1-(4-methoxyphenyl)-4,4-dimethyl-1,4,5,6-tetrahydropyridine-3-carbonyl)cyclopentanone]
UV λmax [2]: 332 nm | ε (molar extinction coefficient) [2, 14]: 30675 M⁻¹ cm⁻¹

Cc1ccc(N2C=C(C(=O)CCCCCCCCC(=O)C3=CN(c4ccc(C)cc4)CCC3(C)C)C(C)(C)CC2)cc1 [Compound 172, 1,10-bis(4,4-dimethyl-1-(p-tolyl)-1,4,5,6-tetrahydropyridin-3-yl)decane-1,10-dione]
UV λmax [2]: 328 nm | ε value ([2]; unit inferred): > 52000 M⁻¹ cm⁻¹ | ε (molar extinction coefficient) [2, 14]: 52737 M⁻¹ cm⁻¹

COc1ccc(N2C=C(C(=O)COc3ccccc3)C(C)(C)CC2)cc1 [Compound 173, 1-(1-(4-methoxyphenyl)-4,4-dimethyl-1,4,5,6-tetrahydropyridine-3-yl)-2-phenoxyethanone]
UV λmax [2]: 339 nm | ε (molar extinction coefficient) [2, 14]: 26633 M⁻¹ cm⁻¹

From patent US10519111B2, “UV absorbing compounds, compositions comprising same and uses thereof” (CORAL SUNSCREEN PTY LTD, priority 2013, dated 2019)
